{"source": "patent US20250339546A1", "about": "“GLIOBLASTOMA TUMOR GROWTH INHIBITON BY SAT1 KNOCKDOWN” (BIOMARK CANCER SYSTEMS, INC., priority 2021, published 2025)", "key": {"BBB": {"test_system": "BBB", "experiment": "Bidirectional BBB permeability in the BBB microfluidic model", "method": "Permeability coefficients are the mean±SD of 3 microfluidic units.\nFinally, the bidirectional BBB permeability of amantadine and rimantadine, as well as their metabolites, was evaluated in the previously described model."}, "SAT1 [1]": {"molecular_target": "SAT1 (Homo sapiens, UniProt P21673)", "sequence (P21673 whole entry)": "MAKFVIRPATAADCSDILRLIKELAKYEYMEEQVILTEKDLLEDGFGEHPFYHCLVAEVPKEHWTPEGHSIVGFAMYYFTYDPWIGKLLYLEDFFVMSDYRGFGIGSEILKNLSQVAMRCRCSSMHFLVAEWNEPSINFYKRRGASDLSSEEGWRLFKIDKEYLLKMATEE", "method": "FIG. 17C SAT1 induction was confirmed by Western blot analysis of the protein sample. (mean=+SD, n=3).\nNext, SAT1 activity was assessed in U251 cells via production of acetylated-amantadine after treatment with the SAT1 substrate amantadine, or the production of acetylated-rimantadine after treatment with the SAT1 substrate rimantadine."}, "NAT2": {"test_system": "NAT2", "experiment": "NAT2 gene and protein expression in U251 cells", "type": "cell-based, human", "conditions": "10 μM, 24 h and 48 h"}, "NAT1": {"test_system": "NAT1", "experiment": "NAT1 gene and protein expression in U251 cells", "type": "cell-based, human", "conditions": "10 μM, 24 h and 48 h"}, "SAT1 [2]": {"test_system": "SAT1", "experiment": "SAT1 induction in U251 cells (mRNA and Western blot)", "type": "cell-based, human", "conditions": "10 μM, 24 and 48 hours", "from_the_text": "SAT1 expression was next evaluated in U251 cells."}, "macrophage cells (ANA-1)": {"test_system": "macrophage cells (ANA-1)", "experiment": "Cell viability/proliferation MTT assay, ANA-1", "type": "cell-based, murine", "conditions": "0.1 μM", "method": "(§1) Cells were transfected in T-25 flask as discussed above. Forty-eight hours after transfection, the cells were seeded in 96-well plates (5000 cells/well). After 24-hours, the cells were exposed to no treatment or either 10 Gy radiation (RS-2000, Rad Source Technologies, Inc., Buford, GA, USA) or anticancer drugs carmustine (i.e., BCNU™ or BiCNU™) (100 μM), Doxorubicin (0.1 μM) and Topotecan (0.2 μM). After 24 hours, the media and treatments were removed and replaced with fresh media and cultured for 48 hours. The percentage of viable cells was determined using MTT assay (Norouzi et al, 2020)."}, "U251 glioblastoma cells": {"test_system": "U251 glioblastoma cells", "experiment": "Cell viability/proliferation MTT assay, U251", "type": "cell-based, human", "conditions": "combined with SAT1 knockdown, DOX 0.1 μM, TOPO 0.2 μM", "method": "as §1"}}, "note": "Read-outs that look alike come from different tables or passages of the source."}
{"smiles": "CC(=O)NC12CC3CC(CC(C3)C1)C2", "note": "[Ac-amantadine, acetylated-amantadine]", "values": [{"measurement": "BBB permeability", "setting": "BBB; from the brain to blood", "result": "able to cross the BBB from the brain to blood efficiently"}, {"measurement": "earliest detection after induction", "setting": "SAT1 [1]", "result": 5, "unit": "min"}, {"measurement": "earliest detection after induction, in some cases", "setting": "SAT1 [1]", "result": 3, "unit": "min"}]}
{"smiles": "CC(=O)NC(C)C12CC3CC(CC(C3)C1)C2", "note": "(stereo not drawn) [Ac-rimantadine, acetylated-rimantadine]", "values": [{"measurement": "BBB permeability", "setting": "BBB", "result": "able to cross the BBB from the brain to blood efficiently"}, {"measurement": "earliest detection after induction", "setting": "SAT1 [1]", "result": 5, "unit": "min"}, {"measurement": "earliest detection after induction, in some cases", "setting": "SAT1 [1]", "result": 3, "unit": "min"}]}
{"smiles": "CCNCCCNCCCNCCCNCC", "note": "[DENSPM, N(1),N(11)-diethylnorspermine]", "values": [{"measurement": "NAT2 gene and protein expression levels", "setting": "NAT2", "result": "did not significantly change"}, {"measurement": "NAT1 gene and protein expression levels", "setting": "NAT1", "result": "did not significantly change"}, {"measurement": "SAT1 gene and protein expression", "setting": "SAT1 [2]", "result": "enhanced"}]}
{"smiles": "COc1cccc2c1C(=O)c1c(O)c3c(c(O)c1C2=O)C[C@@](O)(C(=O)CO)C[C@@H]3O[C@H]1C[C@H](N)[C@H](O)[C@H](C)O1", "note": "[DOX, Doxorubicin]", "values": [{"measurement": "sensitivity of cells to treatment", "setting": "macrophage cells (ANA-1)", "result": "particularly sensitive"}, {"measurement": "cell viabilities/proliferation", "setting": "U251 glioblastoma cells", "result": "lowest"}]}
{"smiles": "CC[C@@]1(O)C(=O)OCc2c1cc1n(c2=O)Cc2cc3c(CN(C)C)c(O)ccc3nc2-1", "note": "[TOPO, Topotecan]", "values": [{"measurement": "cell viabilities/proliferation", "setting": "U251 glioblastoma cells", "result": "lowest"}]}
{"smiles": "NC12CC3CC(CC(C3)C1)C2", "note": "[amantadine]", "values": [{"measurement": "BBB permeability", "setting": "BBB; from blood to the brain", "result": "able to cross"}]}
{"smiles": "CC(N)C12CC3CC(CC(C3)C1)C2", "note": "(stereo not drawn) [rimantadine]", "values": [{"measurement": "BBB permeability", "setting": "BBB", "result": "able to cross"}, {"measurement": "BBB permeability relative to amantadine", "setting": "BBB", "result": "slightly more permeable"}]}
